This is an account of results in patent publication US20230279482A1, “COMPOSITIONS, METHODS AND USES FOR QUANTIFYING TRANSCRIPTION AND BIOSENSING OF SMALL MOLECULES USING A NOVEL TYPE VI CRISPR-CAS ASSAY” (THE REGENTS OF THE UNIVERSITY OF COLORADO, A BODY CORPORATE, priority 2020, published 2023).

For this test, the system named is crcB fluoride riboswitch. In words: SPRINT assay with fluoride riboswitch. The format is biochemical, B. cereus. The method, then:
SPRINT reactions. Pentauridine RNA oligonucleotides were labeled with carboxyfluorescein (FAM) or TEX 615 at the 5′-end and with Iowa Black FQ at the 3′-end. Fluorescence measurements were taken at wavelengths 490/525 nm (excitation/emission) when the FAM fluorophore was used. In reactions with flavin-containing ligands, TEX-labeled RNA oligos were used at the wavelengths 576/615 (excitation/emission). Fluorescence measurements were taken every 5 minutes.
For exemplary SPRINT assays, a master mix was first prepared and then mixed with the remaining reaction reagent components to yield a final reaction volume of 30 μL; fluorescent readings of the entire reaction volume were performed in Corning 384 Flat Bottom Black Polystyrol plates. This master mix (SPRINT buffer, 10×), for assays contemplated herein can include, but is not limited to: 700 mM Tris-HCl, pH 8.0, 700 mM NaCl, 1 mM EDTA, 140 mM β-mercaptoethanol, and 25 mM MgCl2. Aliquots of an exemplary 10× SPRINT buffer were stored at −20° C. and not allowed to undergo more than 10 freeze-thaw cycles.
The B. cereus crcB fluoride riboswitch is a regulatory switch that turns on expression of the fluoride efflux pump crcB via selectively binding fluoride over chloride. […] This may be explained in part by an observed inhibition of the assay at fluoride concentrations above 100 μM. […]

As to `[F-].[Na+]` [fluoride, sodium fluoride], the EC50 (FIG. 4C, read-out: T50 value) was determined as 11 ± 1 µM. Under “one-batch SPRINT”, the “fluoride concentration at which inhibition of the assay is observed” value was “above 100 μM”.
